Experimental data taken from patent US12605323B2, “Composition for inhibiting hair graying, and use thereof” (LG HOUSEHOLD & HEALTH CARE LTD., priority 2020, dated 2026).
Where no end group is shown, it is not given here.

What was measured:
[1] = tested on: Wnt/β-catenin signaling pathway (TCF/LEF Responsive Luciferase Reporter HEK293A cell line); experiment: Effect of enhancing Wnt/β-catenin signaling, TCF/LEF responsive luciferase reporter assay; type: cell-based; settings: 10 μg/mL, 24 hours, WRHEK293A cells, non-treated control = 100%
Protocol: To determine activation of the Wnt/β-catenin signaling pathway, TCF/LEF Responsive Luciferase Reporter HEK293A stabilized cell line (Wnt Reporter HEK293A cell; WRHEK293A) was used in this test. The stabilized cell line was maintained through the subculture using MEM (Corning, USA) and fetal bovine serum (Gibco BRL, Gaithersburg, MD, USA). To carry out a transcriptional activity test, 30,000 cells were seeded per well in a 96-well plate and cultured in an incubator at 37° C. for 24 hours. Then, according to the present disclosure, treatment with each of escin, 27-deoxyactein, lysionotin, nitidine chloride, lanosterol, engeletin, specnuezhenide, praeruptorin B, rotundic acid, sesamoside, polygalacin D, momordin Ic, valechlorine, tussilagone, periplocin, polyphyllin VII and platycodin D2 was carried out as shown in the following Table 1. After culturing for 24 hours, a luciferase assay system (Promega) was used to perform reporter analysis. The analysis was carried out by the test method provided by the production company, and luminescence was determined by using Victor multiwall plate reader (PerkinElmer, USA). To determine cytotoxicity caused by the treatment, development of fluorescence of GFP as an internal control was determined. The luminescence value derived from the reaction with luciferase was divided by the GFP fluorescence value, and the values of the test group were calculated by taking the value of the non-treated control as 100% and expressed in the unit of percentage (%) (Table 1).

[2] = tested on: B-16 mouse melanoma cells; experiment: Determination of effect of producing melanin; type: cell-based; settings: B-16 melanoma cells; for Melanin synthesis (%): non-treated control = 100%
Protocol: In this test, the compounds in Test Example 1 showing an effect of enhancing the Wnt signaling were added to the culture medium of mouse-derived melanoma cells (B-16 mouse melanoma cells) to determine the effect of producing melanin in a cellular level (Lotan R., Lotan D. Cancer Res. 40: 3345-3350, 1980). Before the test, B-16 melanoma cells were evaluated in terms of toxicity, and the non-toxic concentration was selected to carry out evaluation of melanin production. B-16 melanoma cells were subcultured in DMEM (Gibco BRL., Gaithersburg, MD, USA) containing 10% FBS. Then, seeding to a 100 mm cell culture dish was performed to synthesize and extract melanin, and the cells were treated with each compound when the confluency was 70%. The compound was used for treating the cell culture at a concentration of 10 μg/mL. In addition, α-melanocyte stimulating hormone (α-MSH) was used as control, added to the culture medium to 10 nM to treat B-16 melanoma cells, and cultured for 48 hours. Then, the cells were treated with trypsin to strip them off the culture container, and centrifugal separation was carried out to extract melanin. After that, 1 mL of sodium hydroxide (1 N concentration) solution was added to the stripped cells and the mixture was boiled for 10 minutes so that melanin may be dissolved. The amount of melanin production was determined by measuring the absorbance at 400 nm by using a spectrophotometer. The amount of melanin was quantified in the unit of μg/mL by using a standard absorbance curve as a function of melanin concentration. The value of the non-treated control was taken as 100%, and the values of the test group were calculated as a percentage (%) on the basis thereof (Table 2).

Compound	Wnt signaling activation capability (%) (Luminescence/GFP) [1]	Melanin synthesis (%) ([2]; 10 μg/mL)	melanin synthesis (FIG. 1) [2]	Melanin synthesis (%) ([2]; 10 nM, 48 hours)
CC=C1[C@H](O[C@@H]2O[C@H](CO)[C@@H](O)[C@H](O)[C@H]2O)OC=C(C(=O)OC)[C@H]1CC(=O)OC[C@H]1O[C@@H](OCCc2ccc(O)cc2)[C@H](O)[C@@H](O)[C@@H]1O (stereo in doubt) [Specnuezhenide, specnuezhenide]	243	106	–	–
CC(=O)O[C@@H]1C[C@@]23C[C@@]24CC[C@H](O[C@@H]2OC[C@@H](O)[C@H](O)[C@H]2O)C(C)(C)[C@@H]4CC[C@H]3[C@]2(C)C[C@@H]3O[C@]4(C[C@@H](C)[C@@H]3[C@@]12C)OC[C@@]1(C)O[C@@H]41 [27-Deoxyactein, 27-deoxyactein]	1717	168	–	–
CC1OC(OC2C(=O)c3c(O)cc(O)cc3OC2c2ccc(O)cc2)C(O)C(O)C1O (stereo not drawn) [Engeletin, engeletin]	223	121	–	–
CC(C)=CCC[C@@H](C)[C@H]1CC[C@@]2(C)C3=C(CC[C@]12C)[C@@]1(C)CC[C@H](O)C(C)(C)[C@@H]1CC3 [Lanosterol, lanosterol]	194	110	–	–
COc1ccc(-c2cc(=O)c3c(O)c(OC)c(O)c(OC)c3o2)cc1 [Lysionotin, lysionotin]	196	135	–	–
CC1(C)CC[C@]2(C(=O)O)CC[C@]3(C)C(=CC[C@@H]4[C@@]5(C)CC[C@H](O[C@@H]6O[C@H](C(=O)O)[C@@H](O)[C@H](O[C@@H]7OC[C@@H](O)[C@H](O)[C@H]7O)[C@H]6O)C(C)(C)[C@@H]5CC[C@]43C)[C@@H]2C1 [Momordin Ic, momordin Ic]	370	131	–	–
COc1cc2c[n+](C)c3c4cc5c(cc4ccc3c2cc1OC)OCO5 [Nitidine chloride, nitidine chloride]	274	125	–	–
CO[C@H]1C[C@H](O[C@H]2CC[C@]3(C)[C@H]4CC[C@]5(C)[C@@H](C6=CC(=O)OC6)CC[C@]5(O)[C@@H]4CC[C@]3(O)C2)O[C@H](C)[C@H]1O[C@@H]1O[C@H](CO)[C@@H](O)[C@H](O)[C@H]1O [Periplocin, periplocin]	244	128	–	–
C[C@@H]1O[C@@H](O[C@H]2[C@H](OC(=O)[C@]34CCC(C)(C)C[C@H]3C3=CC[C@@H]5[C@@]6(C)C[C@H](O)[C@H](O[C@@H]7O[C@H](CO)[C@@H](O)[C@H](O[C@@H]8O[C@H](CO)[C@@H](O)[C@H](O)[C@H]8O)[C@H]7O)C(CO)(CO)[C@@H]6CC[C@@]5(C)[C@]3(C)C[C@H]4O)OC[C@H](O)[C@@H]2O)[C@H](O)[C@H](O)[C@H]1O[C@@H]1OC[C@@H](O)[C@H](O[C@@H]2OC[C@](O)(CO)[C@H]2O)[C@H]1O [Platycodin D2, platycodin D2]	216	119	–	–
C[C@@H]1O[C@@H](O[C@H]2[C@H](OC(=O)[C@]34CCC(C)(C)C[C@H]3C3=CC[C@@H]5[C@@]6(C)C[C@H](O)[C@H](O[C@@H]7O[C@H](CO)[C@@H](O)[C@H](O)[C@H]7O)[C@@](C)(CO)[C@@H]6CC[C@@]5(C)[C@]3(C)C[C@H]4O)OC[C@H](O)[C@@H]2O)[C@H](O)[C@H](O)[C@H]1O[C@@H]1OC[C@@H](O)[C@H](O[C@@H]2OC[C@](O)(CO)[C@H]2O)[C@H]1O [Polygalacin D, polygalacin D]	292	114	–	–
C/C=C(/C)C(=O)O[C@H]1c2c(ccc3ccc(=O)oc23)OC(C)(C)[C@H]1OC(=O)/C(C)=C\C [Praeruptorin B, praeruptorin B]	241	136	–	–
C[C@@H]1CC[C@]2(C(=O)O)CC[C@]3(C)C(=CC[C@@H]4[C@@]5(C)CC[C@H](O)[C@@](C)(CO)[C@@H]5CC[C@]43C)[C@@H]2[C@]1(C)O [Rotunic acid, rotundic acid]	296	144	–	–
COC(=O)C1=CO[C@@H](O[C@@H]2O[C@H](CO)[C@@H](O)[C@H](O)[C@H]2O)[C@@H]2[C@@]3(C)O[C@H]3[C@@H](O)[C@]12O [Sesamoside, sesamoside]	275	112	–	–
C=C1[C@H](OC(=O)/C=C(\C)CC)C[C@@H](C(C)C)[C@@H]2[C@@H]([C@@H](C)OC(C)=O)C(=O)C[C@@H]12 [Tussilagone, tussilagone]	195	136	–	–
escin	1098	154	increase in melanin synthesis	–
polyphyllin VII	275	127	–	–
valechlorine	218	139	–	–
α-melanocyte stimulating hormone (SYSMEHFRWGKPV; ends and bridges not checked; UniProt P01189 138-150, looked up) [α-MSH, α-melanocyte stimulating hormone used as control at 10 nM, reference compound]	–	–	–	135
